“Also recorded” adds a separate entry of the source.
What was measured:
[1] = system: U87 cells; assay: Cell viability assay, AZD2014, 72 h; type: cell-based
Protocol: (§1) FIG. 5. A mTORC1/2 inhibitor AZD2014 inhibited cell survival, mTORC1 and mTORC2 activities in GSCs and glioma cells. (A) GSC M83 and JK83 and glioma cells U87 were treated with indicated concentration of AZD2014 for 72 h, then cell viability was evaluated. (B) GSC M83 and JK83 were treated with the indicated concentration of AZD2014 for 1 hr, or with 2 μM AZD2014 for the specified time. Cells were collected for immunoblot analysis. β-actin was used as a loading control; Results are representative of 2 independent experiments. *P<0.05, **P<0.01, paired two-way Student's t-test. Data are representative from three independent experiments with similar results.
Glioma cells U87 (from ATCC) were cultured in DMEM (Invitrogen) supplemented with 10% FBS and 1% penicillin and streptomycin. Neural progenitor cells were cultured in NPBM Neural Progenitor Basal medium supplemented with hEGF, hFGF, NSF-1 and GA (Lonza, Cat #: cc-3210, cc-4241 and cc-4242). […]
GSCs with single or combined treatments were cultured for 72 hours in 96-well plates at 2,000 cells per well. Cell viabilities were determined using CellTiter-Glow 2.0 Assay (Promega). […]

[2] = system: LC3B, p62/SQSTM-1 and LAMP2 in GSC M83 and JK83 cells; assay: Immunoblot of autophagy markers (LC3B, p62, LAMP2) in GSCs treated with AZD2014 and NSC; type: cell-based; conditions: NSC in the presence of AZD2014
Protocol: as §1
FIG. 6. NSC enhanced the cytotoxicity of a mTORC1/2 inhibitor AZD2014 in GSCs. (A) GSC M83 and JK83 were exposed to DMSO control vs AZD2014 vs NSCs vs AZD2014 in combination with NSC for 72 hr. Cells were collected for immunoblot analysis using indicated antibodies. (B) Immunofluorescence analyses for LC3B puncta in GSC M83 and JK83 cells with indicated treatments. (C and D) GSC M83 and JK83 and/or neural progenitor cells (NPC) were treated as indicated in (A), cell viability was tested at 72 h after treatment (C), and cell apoptosis was measured by Annexin V FACS assay 48 h after treatment. Data are representative from three independent experiments with similar results. […]

[3] = system: LC3B puncta in GSC M83 and JK83 cells; assay: LC3B immunofluorescence (puncta, autophagosomes); type: cell-based; conditions: NSC in cells treated with AZD2014
Protocol: (§2) FIG. 6. NSC enhanced the cytotoxicity of a mTORC1/2 inhibitor AZD2014 in GSCs. (A) GSC M83 and JK83 were exposed to DMSO control vs AZD2014 vs NSCs vs AZD2014 in combination with NSC for 72 hr. Cells were collected for immunoblot analysis using indicated antibodies. (B) Immunofluorescence analyses for LC3B puncta in GSC M83 and JK83 cells with indicated treatments. (C and D) GSC M83 and JK83 and/or neural progenitor cells (NPC) were treated as indicated in (A), cell viability was tested at 72 h after treatment (C), and cell apoptosis was measured by Annexin V FACS assay 48 h after treatment. Data are representative from three independent experiments with similar results.
Immunofluorescent staining. GSCs were seeded onto LabTek CC2-treated tissue culture slides (Thermo Fisher) and cultured for 24 hours. Cells were then fixed with 4% formaldehyde (Fisher) for 15 min, and permeabilized with 0.1% Triton X-100, and then blocked with AquaBlock (East Coast Bio, North Berwick, Me.) for 60 minutes. The slides were incubated with indicated primary antibodies according to the manufacturer's instructions. After being washed for three times with PBS-T, cells were incubated with secondary antibody (Alexa 488 and 594, 1:200) and DAPI-containing mounting solution Vectashield (Vector Laboratories). Cells were analyzed on a Nikon inverted microscope Eclipse Ti-U equipped with a digital camera. […]

[4] = system: GSC JK83 and M83; assay: Cell viability assay, AZD2014 and NSC, 72 h; type: cell-based
Protocol: as §1, §2
GSCs with single or combined treatments were cultured for 72 hours in 96-well plates at 2,000 cells per well. Cell viabilities were determined using CellTiter-Glow 2.0 Assay (Promega).
(§3) mTOR kinases are crucial regulators of glioma cell growth, proliferation and survival (Akhavan et al., 2010). […] A strong inhibition was achieved by 1 μM with complete block of mTORC1/2 activities at 2 μM (FIG. 5B).
(§4) Since autophagy activation is considered as a cytoprotective factor that contribute to tumor survival when challenged by therapies, it is proposed that block of autophagy activation by NSC would further enhanced the cytotoxicity of dual TORC1/2 inhibitor AZD2014.

[5] = system: GSC JK83 orthotopic xenografts; assay: GSC JK83 orthotopic brain tumor xenograft model (survival, BLI, tissue staining); type: in vivo, mice
From the text: FIG. 7. NSC enhance anticancer efficacy of AZD2014 in a patient-derived GSC xenograft model. […] Treatments were started at one week post-implantation. Bioluminescent (BLI) images were taken after the last treatment, and representative images are shown. Scale bar, photons/sec/cm2/steradian. (B) Kaplan-Meier of mice bearing GSC JK83 orthotopic xenografts with indicated treatments. (C) The brains of mice bearing orthotopic xenografts with indicated treatments were collected for immunohistochemical evaluation using indicating antibody. *P<0.05, **p<0.01, […]. Data are representative from three independent experiments with similar results.
Frozen brain tissue sections with GBM xenografts were dried and then fixed in were fixed in 4% paraformaldehyde (PFA) in PBS for 5 minutes. Tissue sections were blocked with AquaBlock (East Coast Bio, North Berwick, Me.) for an hour and then were probed with appropriate primary antibodies 4° C. overnight. Tissue sections were incubated with Alexa 488 or 594 labelled secondary antibodies (1:200) and DAPI-containing mounting solution Vectashield (Vector Laboratories), and representative images were photographed using a Nikon inverted microscope Eclipse Ti-U equipped with a digital camera.
To determine whether the enhancement of AZD2014 therapeutic efficiency by combination with NSC measured in vitro extends to an orthotopic model, GSC JK83 glioma spheres were employed to initiate intracerebral xenografts in mice.

[6] = system: mTORC1 and mTORC2 activity in GSC M83 and JK83 cells; assay: Immunoblot of mTORC1 and mTORC2 activity in GSCs; type: cell-based
Protocol: as §1, §2
IB assays were performed as previously described (Huang et al., 2016b). Specific antibodies were used according to the manufacturer's instructions: LC3B (#3868S), pAKT (Ser473; 4060), pAKT(Thr308; 4056), AKT (4691), pS6(S235/236; 2211), S6 (2317), phosphorylated 4E-binding protein 1 (p4EBP1) (Thr37/46; 2855), 4EBP1 (9644), p-mTOR (Ser2448; 2971S), p-mTOR (Ser2481; 2974S), mTOR (2972S), pULK1(Ser317; 14202T), pULK1 (Ser757; 8054T), ULK1(6439), LAMP2 (49067S) were from Cell Signaling Technology. Anti-β-actin (SC-47778) and anti-SQSTM1/p62 (SC-28359) antibodies were from Santa Cruz Biotechnology. An anti-Ki-67 antibody (AB9260) was from EMD Millipore.
as §3, §4

[7] = system: intracranial GBM6FL TMZ res xenografts; assay: Intracranial PDX GBM6FL temozolomide resistant xenograft model; type: in vivo, mice; conditions: compared to vehicle-treated brain xenografts
From the text: FIG. 8. Combination therapy of autophagy inhibitor NSC185058 (NSC) with IR+TMZ suppressed growth of intracranial GBM6FL temozolomide (TMZ) resistant (res) xenografts. […] Mice were imaged at the indicated day after the implantation, and representative BLI images are shown. (B) Changes in the body weight of the mice in each respective treatment groups. (C, D) Effects of NSC, IR, TMZ and the indicated combinations on GBM6FL TMZ res orthotopic xenografts in mice. The luminescence of xenograft tumors formed by indicated treatment. **p<0.01 compared to vehicle controls. Colored scale bars represent photons/s/cm2/steradian. (E, F) Kaplan-Meier (E) and log-rank p value analyses (F) of mice bearing GBM6FL TMZ res orthotopic xenografts with indicated treatments. First and second IR+TMZ+NSC tri-treatments were started at day 7 and day 35 post-implantation, respectively.
GBM6FL TMZ res orthotopic xenograft model was recently established by Dr. Charles David James at Northwestern University as intracranial GBM xenografts after three runs of TMZ treatments and subsequent passages in the flanks of mice.

Structure (SMILES): CNC(=O)c1cccc(-c2ccc3c(N4CCOC[C@@H]4C)nc(N4CCOC[C@@H]4C)nc3n2)c1 [AZD2014, vistusertib]
- concentration at which cell viability was significantly decreased [1]: 0.1 µM
- autophagy markers (LC3B conversion, p62 and LAMP2 degradation) [2]: increased LC3-II conversion (LC3B-II/I ratio) and p62/SQSTM-1 degradation; also recorded: induced autophagic influx by inducing LC3B lipidation and degradation of p62 and LAMP2
- autophagosomes number (LC3 B immunofluorescence) [3]: increase of autophagosomes number
- cell viability ([4]; 72 h, combination compared with monotherapy, AZD2014 alone): displayed inhibitor effects on GBM cell viability
- concentration at which cell viability was significantly decreased ([4]; GSC JK83 and M83, 72 h): 1 µM
- inhibition efficiency on GSCs compared with glioma cells ([4]; same concentration of AZD2014, GSCs vs U87): significantly lower than glioma cells
- levels of p-4EBP1 and p-AKT in tumor tissues ([5]; AZD2014 alone or in combination with NSC vs control): significantly reduced in the levels of p-4EBP1 and p-AKT
- mouse survival ([5]; NSC (100 mg/kg), AZD2014 (50 mg/kg), alone or combined, vs control): modest but significant effects on mouse survival
- mTOR signaling and ULK1 phosphorylation ([6]; GSC83 and JK83 cells, 72 hr): inhibited mTOR induced p-52448/81-mTOR, p-S473-Akt, p-S6, p-S757-ULK1
- concentration giving complete block of mTORC1/2 activities ([6]; GSC M83 and JK83): 2 µM
- concentration giving strong inhibition of mTORC1/2 activities ([6]; GSC M83 and JK83): 1 µM
- time by which inhibition of mTORC1 and mTORC2 was detectable ([6]; GSC M83 and JK83, 2 μM AZD2014): ≤ 2 h
- inhibition of p-S6, p-4EBP1, p-AKT (Ser473) ([6]; GSC M83 and JK83, 1 hr): dose-dependently inhibited p-S6, p-4EBP1, and p-AKT (Ser473)

Structure (SMILES): Cn1nnc2c(C(N)=O)ncn2c1=O [TMZ, temozolomide]
- response of xenografts to TMZ treatments [7]: no response

— US11793816B2, “Methods for enhancing cytotoxic cancer therapy through inhibition of ATG4B” (Northwestern University, priority 2019, dated 2023)
